# Source: patent US20230020329A1, “Annelated 9-hydroxy-1,8-dioxo-1,3,4,8-tetrahydro-2H-pyrido[1,2-a]pyrazine-7-carboxamides as HIV integrase inhibitors, methods of preparation and application thereof” (priority 2019, published 2023)
# Like-named read-outs stand apart in the source and are kept apart here.
# Columns and labels:
# [1] = system: HIV-1 (IIIB strain); assay: Anti-HIV cytoprotection assay (XTT), HIV-1 IIIB in CEM-SS cells; format: cell-based; conditions: CEM-SS cell line, read-out: Inhibitory activity (EC50) against HIV-1 (IIIB strain)
# Outline: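 CEM-SS cells infected with a pre-titrated virus dose killing 85–95% of cells by day 6; protection from HIV-induced death read by XTT formazan. Compounds screened in triplicate at 30 and 10 nM, actives retested at 2 nM; AZT six-concentration curve on each plate as positive control.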
# [2] = Thermodynamic (shake-flask) solubility; format: physicochemical; conditions: for solubility at 24 h: thermodynamic from solid
# Procedure: The test compound of general formula 1 or 2 (2 mg) was weighed into a glass vial. The pION universal buffer (0.5 ml) with pH 7.4 or deionized water was added to appropriate vials. The vials were tightly closed with a lid, placed on a rotating shaker, and incubated for 24 hours to balance the solution and the solid phase at the saturation point. Each resulting solution (200 μl) was taken (in duplicate) from the vials, placed in a 96-well MultiScreen Solubility Filter Plate (Millipore), and filtered using vacuum ([…]) into a polypropylene plate with a U-shaped bottom. If necessary, the filtrates were diluted with an appropriate buffer (water). Then, 120 μl of the filtarate (or a diluted filtrate) was transferred to a 96-well plate with a UV-transparent bottom and 60 μl/well of acetonitrile and 20 μl/well of DMSO were added and thoroughly mixed with a multichannel pipette (acetonitrile and DMSO were added to obtain a required composition of calibration standards, as described below). The optical density of the resulting solutions was measured on a multifunction Infinite 200 PRO plate reader in the wavelength range from 240 nm to 400 nm in steps of 10 nm. The value of ODλ for solutions was assessed at a wavelength chosen for plotting a calibration curve.
# The concentration of a substance in the solution after the solubility test was evaluated using a calibration curve. A stock solution in DMSO with a concentration of 2 mg/ml was prepared from a separate sample. […] The range of final concentrations of the calibration curve was 0.2; 0.1; 0.05; 0.025; 0.0125; 0.00625, and 0 mg/ml. Calibration solutions were prepared in a 96-well UV plate as follows: 20 μl of a 10-fold stock solution in DMSO, 60 μl of acetonitrile, and 120 μl of the appropriate buffer were added to the well and stirred. The optical density of the resulting solutions was measured on a multifunction Infinite 200 PRO plate reader in the wavelength range from 240 nm to 400 nm with a step of 10 nm. The optimal wavelength typically corresponding to the absorption maximum was chosen, and a linear dependence of OD at a given wavelength on the concentration of the compound was obtained.
# The concentration of the compound in the filtrate after the solubility test was calculated according to the formula:
# shake-flask solubility=(ODλfiltrate−ODλblank)/(slope×1.67×filtrate dilution)
# wherein slope means the slope of the calibration curve; 1.67 is the filtrate acetonitrile+DMSO dilution ratio; filtrate dilution is an additional dilution of the filtrate, if applicable.
# [3] = system: HIV-1 (NL4.3 strain) carrying the GFP reporter gene (NL4.3-GFP); assay: HIV-1 NL4.3-GFP infection of SupT1 cells; format: cell-based; conditions: Human immunodeficiency virus 1, SUP-T1, read-out: Inhibitory activity (EC50) of HIV-1 (NL4.3 strain) carrying the GFP reporter gene
# Procedure: 6. Inhibitory Activity of HIV-1 (NL4.3 Strain) Carrying the GFP Reporter Gene (NL4.3-GFP) in the SuPT1 Cell Line.
# The evaluation was done by RetroVirox Inc. (San Diego, Calif., USA). SupT1 cells were infected with the HIV NL4.3 strain carrying the green fluorescent protein gene (NL4.3-GFP). The virus sample was produced by transfection of 293T cells with proviral DNA. The sample was frozen 48 hours after transfection and stored until use. To enhance the efficiency of infection, a suspension of SupT1 cells was precipitated from the infectious mixture by centrifugation. Test substances were added to the cells immediately before adding the virus. After 2 hours of incubation, the infectious mixture was replaced with a fresh culture medium containing test samples. The effectiveness of the infection was determined after 45 hours by counting the percentage of fluorescent cells in comparison with uninfected cell cultures. The cytotoxicity of the test compounds was determined in parallel on the same, but not infected, SupT1 cell line using the XTT reagent. Serial tenfold dilutions of the samples (starting from 10 μM when determining antiviral activity or from 100 μM for determining cytotoxicity). As a negative control, 0.1% DMSO was used. The values of EC50 were calculated. The quality of the tests was determined using the following controls: signal-to-noise ratio, integrase inhibitor raltegravir (1 μM), and test reproducibility.
# [4] = system: HIV; conditions: depending on the method of analysis; read-out: Inhibitory activity EC50 (literature); cited from earlier work
# [5] = Human immunodeficiency virus 1, IIIB, CEM-SS
# [6] = aqueous buffer, pION universal buffer pH 7.4, 24 h, read-out: Solubility, pH 7.4, value
# [7] = deionized water, 24 h, read-out: Solubility, water, value
# [8] = deionized water, water, read-out: Solubility in water
Compound,"EC50 [1, 5] [nM]","solubility at 24 h [2, 6] [µg/mL]","solubility at 24 h [2, 7] [µg/mL]",EC50 [3] [nM],EC50 [1] [nM],"Solubility, water, value ([2]; deionized water, 24 h) [µg/mL]","solubility at 24 h [2, 8] [µg/mL]",EC50 [4] [nM]
"C[C@H]1CO[C@@H]2Cn3cc(C(=O)NCc4ncccc4F)c(=O)c(O)c3C(=O)N12 [Compound 1.1.16, (3S,11aR)-6-hydroxy-3-methyl-N-[(3-fluoropyridin-2-yl)methyl]-5,7-dioxo-2,3,5,7,11,11a-hexahydro[1,3]oxazolo[3,2-a]pyrido[1,2-d]pyrazine-8-carboxamide]",10 to 30,,,10.5,,,,
"C[C@H]1CO[C@@H]2Cn3cc(C(=O)NCc4ccc(F)nc4F)c(=O)c([O-])c3C(=O)N12.[Na+] [Compound 1.1.20, Sodium (3S,11aR)-8-({[(2,6-difluoropyridin-3-yl)methyl]amino}carbonyl)-3-methyl-5,7-dioxo-2,3,5,7,11,11a-hexahydro[1,3]oxazolo[3,2-a]pyrido[1,2-d]pyrazin-6-olate]",,1680,,,4.8,2679,2680,
"C[C@H]1CO[C@@H]2Cn3cc(C(=O)NCc4ccncc4F)c(=O)c(O)c3C(=O)N12 [Compound 1.1.23, (3S,11aR)-6-hydroxy-3-methyl-N-[(3-fluoropyridin-4-yl)methyl]-5,7-dioxo-2,3,5,7,11,11a-hexahydro[1,3]oxazolo[3,2-a]pyrido[1,2-d]pyrazine-8-carboxamide]",10 to 30,91,78,,,,,
"C[C@H]1CO[C@@H]2Cn3cc(C(=O)NCc4c(F)cncc4F)c(=O)c(O)c3C(=O)N12 [Compound 1.1.24, (3S,11aR)-6-hydroxy-N-[(3,5-difluoropyridin-4-yl)methyl]-3-methyl-5,7-dioxo-2,3,5,7,11,11a-hexahydro[1,3]oxazolo[3,2-a]pyrido[1,2-d]pyrazine-8-carboxamide]",2.63,380,347,,,,,
"Cc1cc2c(cc1CNC(=O)c1cn3c(c(O)c1=O)C(=O)N1[C@@H](C)CO[C@@H]1C3)OCCO2 [Compound 1.1.36, (3S,11aR)-6-hydroxy-3-methyl-N-[(7-methyl-2,3-dihydro-1,4-benzodioxin-6-yl)methyl]-5,7-dioxo-2,3,5,7,11,11a-hexahydro[1,3]oxazolo[3,2-a]pyrido[1,2-d]pyrazine-8-carboxamide]",10 to 30,70,56,,,,,
"Cc1cc(CNC(=O)c2cn3c(c(O)c2=O)C(=O)N2[C@@H](C)CO[C@@H]2C3)c2ccccc2n1 [Compound 1.1.51, (3S,11aR)-6-hydroxy-3-methyl-N-(2-methylquinolin-4-ylmethyl)-5,7-dioxo-2,3,5,7,11,11a-hexahydro[1,3]oxazolo[3,2-a]pyrido[1,2-d]pyrazine-8-carboxamide]",2 to 10,8,31,,,,,
"C[C@H]1CO[C@@H]2Cn3cc(C(=O)NCc4nccc5ccccc45)c(=O)c(O)c3C(=O)N12 [Compound 1.1.55, (3S,11aR)-6-hydroxy-N-(isoquinolin-1-ylmethyl)-3-methyl-5,7-dioxo-2,3,5,7,11,11a-hexahydro[1,3]oxazolo[3,2-a]pyrido[1,2-d]pyrazine-8-carboxamide]",2 to 10,,,14.5,,,,
"C[C@@H]1CCO[C@H]2Cn3cc(C(=O)NCc4ccc(F)nc4F)c(=O)c(O)c3C(=O)N12 [Compound 1.2.1, (4R,12aS)-7-hydroxy-N-[(2,6-difluoropyridin-3-yl)methyl]-4-methyl-6,8-dioxo-3,4,6,8,12,12a-hexahydro-2H-pyrido[1′,2′:4,5]pyrazino[2,1-b][1,3]oxazine-9-carboxamide]",5.15,80,57,,,,,
"C[C@@H]1CCO[C@H]2Cn3cc(C(=O)NCc4ccc(F)cc4F)c(=O)c(O)c3C(=O)N12 [DTG, Dolutegravir]",,,,,,,,1.1 to 7.4

# Further lines, with some results ahead:
"EC50 [1, 5] [nM]","solubility at 24 h [2, 6] [µg/mL]","solubility at 24 h [2, 7] [µg/mL]",Compound,EC50 [3] [nM],EC50 [1] [nM],"Solubility, water, value ([2]; deionized water, 24 h) [µg/mL]","solubility at 24 h [2, 8] [µg/mL]",EC50 [4] [nM]
1.44,24,33,"C[C@H]1CO[C@@H]2Cn3cc(C(=O)NCc4cccs4)c(=O)c(O)c3C(=O)N12 [Compound 1.1.1, (3S,11aR)-6-hydroxy-3-methyl-5,7-dioxo-N-(2-thienylmethyl)-2,3,5,7,11,11a-hexahydro[1,3]oxazolo[3,2-a]pyrido[1,2-d]pyrazine-8-carboxamide]",,,,,
0.59,318,318,"C[C@H]1CO[C@@H]2Cn3cc(C(=O)NCc4nn(C)c(Cl)c4Cl)c(=O)c(O)c3C(=O)N12 [Compound 1.1.7, (3S,11aR)-6-hydroxy-N-[(4,5-dichloro-1-methyl-1H-pyrazol-3-yl)methyl]3-methyl-5,7-dioxo-2,3,5,7,11,11a-hexahydro[1,3]oxazolo[3,2-a]pyrido[1,2-d]pyrazine-8-carboxamide]",,,,,
1.93,21,21,"C[C@H]1CO[C@@H]2Cn3cc(C(=O)NCc4nc5ccccc5s4)c(=O)c(O)c3C(=O)N12 [Compound 1.1.37, (3S,11aR)-N-(1,3-benzothiazol-2-ylmethyl)-6-hydroxy-3-methyl-5,7-dioxo-2,3,5,7,11,11a-hexahydro[1,3]oxazolo[3,2-a]pyrido[1,2-d]pyrazine-8-carboxamide]",,,,,
0.43,3.2,,"C[C@H]1CO[C@@H]2Cn3cc(C(=O)NCc4ccc5nonc5c4)c(=O)c(O)c3C(=O)N12 [Compound 1.1.48, (3S,11aR)-N-(2,1,3-benzoxadiazol-5-ylmethyl)-6-hydroxy-3-methyl-5,7-dioxo-2,3,5,7,11,11a-hexahydro[1,3]oxazolo[3,2-a]pyrido[1,2-d]pyrazine-8-carboxamide]",,,2.85,2.85,
2.17,6,10,"C[C@H]1CO[C@@H]2Cn3cc(C(=O)NCc4cccc5cccnc45)c(=O)c(O)c3C(=O)N12 [Compound 1.1.54, (3S,11aR)-6-hydroxy-3-methyl-N-(quinolin-8-ylmethyl)-5,7-dioxo-2,3,5,7,11,11a-hexahydro[1,3]oxazolo[3,2-a]pyrido[1,2-d]pyrazine-8-carboxamide]",,,,,
